Publication PMC9030254, “Target Hopping from Protein Kinases to PXR: Identification of Small-Molecule Protein Kinase Inhibitors as Selective Modulators of Pregnane X Receptor from TüKIC Library” (Cells, 2022)

Key:
Assay in all cases: Kinase profiling
Assay type in all cases: biochemical
[1] = target: T1, EPHA3 (Homo sapiens, UniProt P29320)
T1 construct: purchased ProQinase (Freiburg, Germany)
T1 sequence (P29320 21-983): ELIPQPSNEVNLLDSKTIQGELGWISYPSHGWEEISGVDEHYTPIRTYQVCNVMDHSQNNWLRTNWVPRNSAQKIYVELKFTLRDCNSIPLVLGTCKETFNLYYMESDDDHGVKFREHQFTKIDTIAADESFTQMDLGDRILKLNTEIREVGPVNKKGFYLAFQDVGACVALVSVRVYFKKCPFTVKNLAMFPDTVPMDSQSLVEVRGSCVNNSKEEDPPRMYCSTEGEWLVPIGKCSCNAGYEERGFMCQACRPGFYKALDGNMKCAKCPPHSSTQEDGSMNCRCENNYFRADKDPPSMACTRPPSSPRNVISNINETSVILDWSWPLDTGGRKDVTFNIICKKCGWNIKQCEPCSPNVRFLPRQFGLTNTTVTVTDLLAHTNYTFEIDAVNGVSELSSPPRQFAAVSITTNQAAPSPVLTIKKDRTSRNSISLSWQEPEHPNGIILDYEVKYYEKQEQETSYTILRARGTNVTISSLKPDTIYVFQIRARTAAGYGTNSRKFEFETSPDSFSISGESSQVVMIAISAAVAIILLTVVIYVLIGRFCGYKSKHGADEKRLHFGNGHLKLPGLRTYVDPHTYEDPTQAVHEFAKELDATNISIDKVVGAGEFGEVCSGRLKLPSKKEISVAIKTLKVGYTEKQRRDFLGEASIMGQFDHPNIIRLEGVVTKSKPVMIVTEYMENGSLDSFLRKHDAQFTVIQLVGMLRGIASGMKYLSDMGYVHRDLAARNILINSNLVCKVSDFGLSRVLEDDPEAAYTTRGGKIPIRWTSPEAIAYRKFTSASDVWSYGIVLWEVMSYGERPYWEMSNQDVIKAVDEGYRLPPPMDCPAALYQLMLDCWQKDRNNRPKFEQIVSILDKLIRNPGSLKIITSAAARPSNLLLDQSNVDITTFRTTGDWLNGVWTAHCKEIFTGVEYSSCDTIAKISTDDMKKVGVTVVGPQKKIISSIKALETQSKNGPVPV
Method: (§1) The analysis was performed by ProQinase (Freiburg, Germany).

[2] = target: T2, MAP4K5 (Homo sapiens, UniProt Q9Y4K4)
T2 construct: purchased ProQinase (Freiburg, Germany)
T2 sequence (Q9Y4K4 whole entry): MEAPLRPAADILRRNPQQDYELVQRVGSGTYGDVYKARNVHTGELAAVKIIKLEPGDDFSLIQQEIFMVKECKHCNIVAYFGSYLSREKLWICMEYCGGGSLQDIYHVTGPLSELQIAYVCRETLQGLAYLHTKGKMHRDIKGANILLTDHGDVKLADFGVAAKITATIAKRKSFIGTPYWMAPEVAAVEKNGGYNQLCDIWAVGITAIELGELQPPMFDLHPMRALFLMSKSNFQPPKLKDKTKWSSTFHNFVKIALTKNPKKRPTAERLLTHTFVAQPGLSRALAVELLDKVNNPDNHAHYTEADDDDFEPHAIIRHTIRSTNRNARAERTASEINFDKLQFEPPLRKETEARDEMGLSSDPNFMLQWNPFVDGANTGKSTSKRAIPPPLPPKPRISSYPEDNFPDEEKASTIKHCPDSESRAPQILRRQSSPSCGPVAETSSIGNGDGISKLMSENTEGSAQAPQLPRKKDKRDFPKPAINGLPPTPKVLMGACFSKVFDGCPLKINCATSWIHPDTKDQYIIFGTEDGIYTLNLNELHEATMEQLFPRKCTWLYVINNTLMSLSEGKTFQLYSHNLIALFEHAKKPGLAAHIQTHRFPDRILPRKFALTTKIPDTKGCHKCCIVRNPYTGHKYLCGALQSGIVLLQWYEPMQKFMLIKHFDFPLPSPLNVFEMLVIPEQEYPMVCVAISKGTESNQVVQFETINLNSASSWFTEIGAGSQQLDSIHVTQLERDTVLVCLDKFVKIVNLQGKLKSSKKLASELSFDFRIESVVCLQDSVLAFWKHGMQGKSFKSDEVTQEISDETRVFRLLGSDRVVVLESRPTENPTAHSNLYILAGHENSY
Method: as §1

[3] = target: T3, MAP3K7/MAP3K7IP1 (Homo sapiens, UniProt O43318)
T3 construct: purchased ProQinase (Freiburg, Germany)
T3 sequence (O43318 1-303 limits assumed): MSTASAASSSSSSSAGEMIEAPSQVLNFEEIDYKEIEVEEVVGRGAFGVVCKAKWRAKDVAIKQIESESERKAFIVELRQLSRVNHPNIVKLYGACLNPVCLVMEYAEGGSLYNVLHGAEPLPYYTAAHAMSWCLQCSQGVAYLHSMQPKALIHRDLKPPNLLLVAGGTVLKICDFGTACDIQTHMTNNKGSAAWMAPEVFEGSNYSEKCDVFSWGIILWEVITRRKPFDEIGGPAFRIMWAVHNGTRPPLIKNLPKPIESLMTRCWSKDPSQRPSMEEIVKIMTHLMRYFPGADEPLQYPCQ
Method: as §1

[4] = target: T4, IKKalpha (Homo sapiens, UniProt O15111)
T4 construct: purchased ProQinase (Freiburg, Germany)
T4 sequence (O15111 1-745): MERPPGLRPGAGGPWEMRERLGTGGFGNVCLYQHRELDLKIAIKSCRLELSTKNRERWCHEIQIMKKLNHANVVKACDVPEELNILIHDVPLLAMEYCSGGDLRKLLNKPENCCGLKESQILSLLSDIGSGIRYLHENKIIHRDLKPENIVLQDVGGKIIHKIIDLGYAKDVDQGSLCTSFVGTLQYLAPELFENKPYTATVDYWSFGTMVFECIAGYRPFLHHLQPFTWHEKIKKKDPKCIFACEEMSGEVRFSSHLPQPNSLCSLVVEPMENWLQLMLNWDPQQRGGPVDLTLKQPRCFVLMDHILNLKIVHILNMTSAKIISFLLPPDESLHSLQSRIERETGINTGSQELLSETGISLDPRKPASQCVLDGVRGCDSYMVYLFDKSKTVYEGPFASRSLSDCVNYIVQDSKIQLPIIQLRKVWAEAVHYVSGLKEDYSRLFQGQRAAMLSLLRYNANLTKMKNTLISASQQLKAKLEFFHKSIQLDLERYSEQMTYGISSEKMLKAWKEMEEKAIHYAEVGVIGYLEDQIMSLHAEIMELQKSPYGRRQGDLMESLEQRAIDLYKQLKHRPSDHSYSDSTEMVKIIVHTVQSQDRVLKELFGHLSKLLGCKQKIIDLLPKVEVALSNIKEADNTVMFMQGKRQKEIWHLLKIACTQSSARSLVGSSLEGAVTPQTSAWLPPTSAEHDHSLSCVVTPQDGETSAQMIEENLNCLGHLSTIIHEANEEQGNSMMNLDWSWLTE
Method: as §1

[5] = target: T5, MAP4K2 (Homo sapiens, UniProt Q12851)
T5 construct: purchased ProQinase (Freiburg, Germany)
T5 sequence (Q12851 1-820): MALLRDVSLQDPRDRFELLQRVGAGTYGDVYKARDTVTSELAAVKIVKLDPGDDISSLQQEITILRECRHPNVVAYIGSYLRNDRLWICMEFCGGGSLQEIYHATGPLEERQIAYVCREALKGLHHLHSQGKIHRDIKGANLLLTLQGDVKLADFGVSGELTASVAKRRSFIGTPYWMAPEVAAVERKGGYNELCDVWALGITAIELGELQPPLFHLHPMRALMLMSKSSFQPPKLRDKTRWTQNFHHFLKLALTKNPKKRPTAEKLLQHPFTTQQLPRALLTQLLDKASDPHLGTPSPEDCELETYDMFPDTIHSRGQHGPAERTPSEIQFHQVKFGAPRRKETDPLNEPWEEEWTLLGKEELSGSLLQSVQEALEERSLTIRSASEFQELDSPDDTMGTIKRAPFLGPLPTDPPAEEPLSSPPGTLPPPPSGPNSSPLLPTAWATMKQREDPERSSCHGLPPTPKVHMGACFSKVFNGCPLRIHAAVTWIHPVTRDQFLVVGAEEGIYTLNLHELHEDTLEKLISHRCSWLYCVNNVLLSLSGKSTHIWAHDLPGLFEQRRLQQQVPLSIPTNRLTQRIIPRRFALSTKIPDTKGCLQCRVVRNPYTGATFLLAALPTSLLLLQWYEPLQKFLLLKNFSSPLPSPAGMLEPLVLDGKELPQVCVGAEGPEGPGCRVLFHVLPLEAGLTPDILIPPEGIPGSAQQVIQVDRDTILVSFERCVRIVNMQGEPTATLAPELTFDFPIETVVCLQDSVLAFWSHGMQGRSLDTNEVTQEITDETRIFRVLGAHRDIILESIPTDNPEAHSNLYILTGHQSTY
Method: as §1

Row | Compound | Residual activity ([1]; 1.0E-05 M) | Residual activity ([1]; 1.0E-06 M) | Residual activity ([2]; 1.0E-05 M) | Residual activity ([2]; 1.0E-06 M) | Residual activity ([3]; 1.0E-05 M) | Residual activity ([3]; 1.0E-06 M) | Residual activity ([4]; 1.0E-05 M) | Residual activity ([4]; 1.0E-06 M) | Residual activity ([5]; 1.0E-05 M) | Residual activity ([5]; 1.0E-06 M)
1 | O=C(Nc1ccc(F)c(Nc2ccc3c(c2)CCCCC3=O)c1)c1cccc(F)c1 [Compound 109] | 94 % of control | 92 % of control | 92 % of control | 92 % of control | 91 % of control | 91 % of control | 93 % of control | 104 % of control | 93 % of control | 95 % of control
2 | O=C(Cc1ccccc1)Nc1ccc(F)c(Nc2ccc3c(c2)CCCCC3=O)c1 [Compound 100] | 86 % of control | 96 % of control | 94 % of control | 98 % of control | 91 % of control | 88 % of control | 102 % of control | 102 % of control | 71 % of control | 94 % of control
